{"source": "patent US20110201564A1", "about": "“SUBSTITUTED 7-SULFANYLMETHYL, 7-SULFINYLMETHYL AND 7-SULFONYLMETHYL INDOLES AND USE THEREOF” (BAYER SCHERING PHARMA AKTIENGESELLSCHAFT, priority 2008, published 2011)", "key": {"[1]": {"biological_target": "T1, progesterone receptor (PR) (Homo sapiens, UniProt P06401)", "T1 construct": "of the progesterone receptor (PR, amino acids 680-933); expressed in transfected cells; host or cells: CHO K1", "T1 sequence (P06401 680-933)": "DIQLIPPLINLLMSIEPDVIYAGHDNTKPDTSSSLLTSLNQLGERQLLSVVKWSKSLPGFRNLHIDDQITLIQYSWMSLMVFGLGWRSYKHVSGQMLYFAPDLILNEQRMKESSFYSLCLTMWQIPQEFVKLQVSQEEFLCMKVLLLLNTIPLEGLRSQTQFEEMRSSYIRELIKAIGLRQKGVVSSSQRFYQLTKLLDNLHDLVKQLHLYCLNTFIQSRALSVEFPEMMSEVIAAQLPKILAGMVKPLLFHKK", "assay": "Cellular in vitro assay, GAL4-PR chimera luciferase reporter in CHO K1 cells (selectivity)", "type": "cell-based", "details": "antagonism vs progesterone; CHO K1 GAL4-PR LBD luciferase reporter", "method_in_brief": "(§1)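 CHO K1 cells stably expressing GAL4 DNA-binding domain fused to human MR, PR or AR ligand-binding domains plus GAL4-driven firefly luciferase; compounds added 10–30 min before agonist (aldosterone, progesterone or dihydrotestosterone), luciferase read after 5–6 h; IC50 from sigmoidal concentration–response curves.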"}, "CYP3A4": {"biological_target": "T2, CYP3A4 (Homo sapiens, UniProt P08684)", "T2 construct": "using human liver microsomes (pool from various individuals); from tissue; host or cells: human liver microsomes (pool from various individuals)", "T2 sequence (P08684 whole entry)": "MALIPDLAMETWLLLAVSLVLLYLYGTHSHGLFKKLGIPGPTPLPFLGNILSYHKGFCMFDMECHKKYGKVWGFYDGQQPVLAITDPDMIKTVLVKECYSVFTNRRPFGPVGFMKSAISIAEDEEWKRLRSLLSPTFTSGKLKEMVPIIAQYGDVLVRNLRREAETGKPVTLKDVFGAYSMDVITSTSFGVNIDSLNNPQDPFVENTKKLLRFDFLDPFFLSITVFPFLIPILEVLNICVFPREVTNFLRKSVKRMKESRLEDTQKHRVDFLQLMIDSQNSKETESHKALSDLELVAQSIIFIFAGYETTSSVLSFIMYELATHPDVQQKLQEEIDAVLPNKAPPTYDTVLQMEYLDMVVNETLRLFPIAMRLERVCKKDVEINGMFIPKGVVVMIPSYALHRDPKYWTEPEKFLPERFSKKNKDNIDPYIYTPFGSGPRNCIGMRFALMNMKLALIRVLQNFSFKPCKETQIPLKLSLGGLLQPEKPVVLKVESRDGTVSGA", "assay": "Assay to assess irreversible CYP3A4 inhibition (mechanism-based inhibition) in human liver microsomes", "type": "in vitro ADME", "details": "CYP3A4 activity as 6β-hydroxytestosterone formation, 2-20 μM", "description": "8. Assay to Assess Irreversible CYP3A4 Inhibition\nCytochrom P450 enzyme inhibition, especially irreversible enzyme inhibition, also referred to as mechanism-based inhibition (MBI), is an unwanted metabolic property of a substance which may, on concurrent administration of other medicaments, lead to considerable drug interactions. Criteria for the presence of an irreversible inhibition are a time-, concentration- and cofactor- (nicotinamide adenine dinucleotide phosphate, NADPH) dependent inhibition. To this end, the compounds of the invention are incubated in vitro with human liver microsomes, the influence on the CYP3A4 activity and the metabolic degradation of the novel active ingredient is determined, and the prototypical parameters kinact, Ki and the partition ratio r are ascertained therefrom.\nThe compounds of the invention are incubated with concentrations of 2-20 μM. To this end, stock solutions of the active ingredients with a concentration of 0.2-2 mM are prepared in acetonitrile and then pipetted with a 1:100 dilution into the incubation mixture. The liver microsomes are incubated in 50 mM potassium phosphate buffer (pH 7.4) with and without NADPH-generating system consisting of 1 mM NADP^+, 5 mM glucose 6-phosphate and 1 unit of glucose 6-phosphate dehydrogenase, at 37° C. After defined preincubation times of 0-50 min, aliquots are removed from these mixtures, diluted 1:25 in a new incubation, and incubated in the presence of testosterone and new NADPH-generating system again for 20 min. These incubation mixtures are stopped with acetonitrile (final concentration about 30% v/v), and the protein is removed by centrifugation at about 15 000×g. The samples stopped in this way are either analyzed directly or stored at −20° C. until analyzed.\nThe analysis takes place by high performance liquid chromatography with mass spectrometry detection (LC-MS). The formation of 6β-hydroxytestosterone as measure of CYP3A4 activity, and the test substance still remaining is quantified. The parameters kinact, Ki and the partition ratio r are determined therefrom so as to assess the novel active ingredients in relation to MBI."}, "androgen receptor (AR)": {"biological_target": "T3, androgen receptor (AR) (Homo sapiens, UniProt P10275)", "T3 construct": "of the androgen receptor (AR, amino acids 667-919); expressed in transfected cells; host or cells: CHO K1", "T3 sequence (P10275 668-920)": "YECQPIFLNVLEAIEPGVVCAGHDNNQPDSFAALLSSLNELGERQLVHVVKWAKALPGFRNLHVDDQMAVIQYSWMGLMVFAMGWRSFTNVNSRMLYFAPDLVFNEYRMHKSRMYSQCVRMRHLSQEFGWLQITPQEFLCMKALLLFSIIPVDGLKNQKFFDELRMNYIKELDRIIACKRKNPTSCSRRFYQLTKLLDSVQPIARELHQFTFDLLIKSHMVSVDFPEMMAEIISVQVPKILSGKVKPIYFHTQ", "assay": "Cellular in vitro assay, GAL4-AR chimera luciferase reporter in CHO K1 cells (selectivity)", "type": "cell-based", "details": "antagonism vs dihydrotestosterone; CHO K1 GAL4-AR LBD luciferase reporter", "method_in_brief": "as §1"}, "[2]": {"biological_target": "T4, human mineralocorticoid receptor (MR) (Homo sapiens, UniProt P08235)", "T4 construct": "expressed in transfected cells; host or cells: CHO K1", "T4 sequence (P08235 734-984 limits assumed)": "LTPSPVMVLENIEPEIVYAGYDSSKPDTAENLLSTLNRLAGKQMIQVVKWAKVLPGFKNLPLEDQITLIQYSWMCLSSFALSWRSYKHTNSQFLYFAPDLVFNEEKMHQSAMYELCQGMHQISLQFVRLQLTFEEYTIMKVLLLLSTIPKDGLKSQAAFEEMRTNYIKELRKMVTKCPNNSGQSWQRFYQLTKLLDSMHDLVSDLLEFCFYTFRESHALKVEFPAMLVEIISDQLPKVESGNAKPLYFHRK", "assay": "Cellular in vitro assay, GAL4-MR chimera luciferase reporter in CHO K1 cells (inhibitory MR activity)", "type": "cell-based", "details": "antagonism vs aldosterone; CHO K1 GAL4-MR LBD luciferase reporter", "method_in_brief": "as §1"}}, "data": [{"smiles": "CS(=O)(=O)Cc1cc(F)cc2c(C(c3ccc(C(F)(F)F)cc3F)C3CC3C#N)c[nH]c12", "note": "(single isomer, unassigned) [Example 271-1-1, 2-({5-Fluoro-7-[(methylsulfonyl)methyl]-1H-indol-3-yl}[2-fluoro-4-(trifluoro-methyl)phenyl]methyl)cyclopropanecarbonitrile]", "values": [{"measurement": "IC50", "setting": "[1]", "value": 10, "unit": "µM"}, {"measurement": "Partition ratio r", "setting": "CYP3A4", "value": ">200"}, {"measurement": "IC50", "setting": "androgen receptor (AR)", "value": 0.94, "unit": "µM"}, {"measurement": "IC50", "setting": "[2]", "value": 0.006, "unit": "µM"}]}, {"smiles": "CS(=O)(=O)Cc1cccc2c(C(CCC#N)c3ccc4sccc4c3)c[nH]c12", "note": "(stereo not shown) [Example 73, 4-(1-Benzothiophen-5-yl)-4-{7-[(methylsulfonyl)methyl]-1H-indol-3-yl}butanonitrile]", "values": [{"measurement": "IC50", "setting": "[1]", "value": 6.44, "unit": "µM"}, {"measurement": "Partition ratio r", "setting": "CYP3A4", "value": ">500"}, {"measurement": "IC50", "setting": "androgen receptor (AR)", "value": 5.22, "unit": "µM"}, {"measurement": "IC50", "setting": "[2]", "value": 0.09, "unit": "µM"}]}, {"smiles": "CS(=O)(=O)Cc1cccc2c(C(CCC#N)c3ccc4c(c3)OC(F)(F)O4)c[nH]c12", "note": "(stereo not shown) [Example 169, 4-(2,2-Difluoro-1,3-benzodioxol-5-yl)-4-{7-[(methylsulfonyl)methyl]-1H-indol-3-yl}butanonitrile]", "values": [{"measurement": "IC50", "setting": "[1]", "value": 6.57, "unit": "µM"}, {"measurement": "Partition ratio r", "setting": "CYP3A4", "value": ">500"}, {"measurement": "IC50", "setting": "androgen receptor (AR)", "value": 2.28, "unit": "µM"}, {"measurement": "IC50", "setting": "[2]", "value": 0.11, "unit": "µM"}]}, {"smiles": "CS(=O)(=O)Cc1cc(F)cc2c(C(c3ccc(Cl)cc3F)C3CC3C#N)c[nH]c12", "note": "(single isomer, unassigned) [Example 273-1-2, 2-[(4-Chloro-2-fluorophenyl){5-fluoro-7-[(methylsulfonyl)methyl]-1H-indol-3-yl}methyl]cyclopropanecarbonitrile]", "values": [{"measurement": "IC50", "setting": "[1]", "value": 10, "unit": "µM"}, {"measurement": "Partition ratio r", "setting": "CYP3A4", "value": ">200"}, {"measurement": "IC50", "setting": "androgen receptor (AR)", "value": 0.98, "unit": "µM"}, {"measurement": "IC50", "setting": "[2]", "value": 0.006, "unit": "µM"}]}, {"smiles": "CS(=O)(=O)Cc1cccc2c(C3(C4CC4)CCc4cc(F)ccc43)c[nH]c12", "note": "(stereo not shown) [Example 107, 3-(1-Cyclopropyl-5-fluoro-2,3-dihydro-1H-inden-1-yl)-7-[(methylsulfonyl)methyl]-1H-indole]", "values": [{"measurement": "IC50", "setting": "[1]", "value": 4.83, "unit": "µM"}, {"measurement": "Partition ratio r", "setting": "CYP3A4", "value": ">400"}, {"measurement": "IC50", "setting": "androgen receptor (AR)", "value": 3.33, "unit": "µM"}, {"measurement": "IC50", "setting": "[2]", "value": 0.02, "unit": "µM"}]}, {"smiles": "CS(=O)(=O)Cc1cccc2c(C(c3ccc(F)cc3)c3ccc(C(F)(F)F)cc3)c[nH]c12", "note": "(stereo not shown) [Example 113, 3-{(4-Fluorophenyl) [4-(trifluoromethyl)phenyl]methyl}-7-[(methylsulfonyl)methyl]-1H-indole]", "values": [{"measurement": "IC50", "setting": "[1]", "value": 7.24, "unit": "µM"}, {"measurement": "Partition ratio r", "setting": "CYP3A4", "value": ">500"}, {"measurement": "IC50", "setting": "androgen receptor (AR)", "value": 3.22, "unit": "µM"}, {"measurement": "IC50", "setting": "[2]", "value": 0.13, "unit": "µM"}]}, {"smiles": "CS(=O)(=O)Cc1cccc2c(C(c3ccc(Cl)cc3)C3CC3(F)F)c[nH]c12", "note": "(single isomer, unassigned) [Example 261-1, 3-[(4-Chlorophenyl)(2,2-difluorocyclopropyl)methyl]-7-[(methylsulfonyl)methyl]-1H-indole]", "values": [{"measurement": "IC50", "setting": "[1]", "value": 12.3, "unit": "µM"}, {"measurement": "Partition ratio r", "setting": "CYP3A4", "value": ">200"}, {"measurement": "IC50", "setting": "androgen receptor (AR)", "value": 5.64, "unit": "µM"}, {"measurement": "IC50", "setting": "[2]", "value": 0.033, "unit": "µM"}]}, {"smiles": "CCC(CCC#N)(c1ccc(Cl)cc1)c1c[nH]c2c(CS(C)(=O)=O)cccc12", "note": "(stereo not shown) [Example 172, 4-(4-Chlorophenyl)-4-{7-[(methylsulfonyl)methyl]-1H-indol-3-yl}hexanonitrile]", "values": [{"measurement": "IC50", "setting": "[1]", "value": 16, "unit": "µM"}, {"measurement": "Partition ratio r", "setting": "CYP3A4", "value": 120}, {"measurement": "IC50", "setting": "androgen receptor (AR)", "value": 5.28, "unit": "µM"}, {"measurement": "IC50", "setting": "[2]", "value": 0.02, "unit": "µM"}]}, {"smiles": "CS(=O)(=O)Cc1cccc2c(C(CCC#N)c3ccc(Cl)cc3F)c[nH]c12", "note": "(single isomer, unassigned) [Example 59-1, 4-(4-Chloro-2-fluorophenyl)-4-{7-[(methylsulfonyl)methyl]-1H-indol-3-yl}butanonitrile]", "values": [{"measurement": "IC50", "setting": "[1]", "value": 10, "unit": "µM"}, {"measurement": "Partition ratio r", "setting": "CYP3A4", "value": 220}, {"measurement": "IC50", "setting": "androgen receptor (AR)", "value": 7.76, "unit": "µM"}, {"measurement": "IC50", "setting": "[2]", "value": 0.08, "unit": "µM"}]}, {"smiles": "CCC(CCO)(c1ccc(Cl)cc1)c1c[nH]c2c(CS(C)(=O)=O)cccc12", "note": "(stereo not shown) [Example 147, 3-(4-Chlorophenyl)-3-{7-[(methylsulfonyl)methyl]-1H-indol-3-yl}pentan-1-ol]", "values": [{"measurement": "IC50", "setting": "[1]", "value": 1.42, "unit": "µM"}, {"measurement": "Partition ratio r", "setting": "CYP3A4", "value": 90}, {"measurement": "IC50", "setting": "androgen receptor (AR)", "value": 3.02, "unit": "µM"}, {"measurement": "IC50", "setting": "[2]", "value": 0.03, "unit": "µM"}]}]}
